Reference: PMC9953095, “Design, Synthesis and Biological Evaluation of Quinazolinamine Derivatives as Breast Cancer Resistance Protein and P-Glycoprotein Inhibitors with Improved Metabolic Stability” (Biomolecules, 2023)
Several values for one entry are separate records, joined by “and”; a condition that tells them apart may be missing. Equal values may be shown once. Read-outs that look alike come from different tables or passages of the source. One block for each molecule: values may come before it.

Key:
[1] = Metabolic stability with human liver microsomes; type: in vitro ADME; conditions: after 1 h of incubation with human liver microsomes, 37 °C, NADPH; also: tested at 200 µM
Description: Human liver microsome (20 mg/mL) 6.25 µL, nicotinamide adenine dinucleotide phosphate (NADPH) (0.75 µmol), MgCl2 (0.75 µmol), and the test compound (0.05 µmol) were added into a potassium phosphate buffer (pH 7.4) with 250 µL of final volume. The incubation was carried out aerobically at 37 °C. The mixture was pre-incubated without NADPH for 10 min at 37 °C and NADPH was added to start the reaction. At 1 h after the start of the reaction, an aliquot (50 µL) of the incubation mixture was taken from each incubation and mixed with 150 µL of ice-cold acetonitrile to terminate the reaction. Subsequently, the sample was centrifuged (12,000 rpm) at room temperature. The resulting supernatant was filtered and analyzed using HPLC (LC, Agilent 1200; column, HC-C18(2); column temperature, 25 °C; mobile phase, solvent A, methanol, solvent B, water; gradient elution, 30–99% solvent A; flow rate, 1 mL/min; UV signals were recorded at 254 nm).

[2] = system: BCRP-overexpressing H460/MX20 cells; assay: [3H]-mitoxantrone accumulation assay, H460/MX20; type: cell-based, human
Description: (§1) To determine the accumulation of drugs on H460, H460/MX20, KB-3-1, and KB-C2 cells, the cells ([…] cells/well) were seeded in the 24-well plates and incubated at 37 °C with 5% CO2 [17]. After 12 h of incubation, a test compound (5 µM) was added and the plates were incubated at 37 °C for 2 h. Cells were then incubated with 0.01 µM [^3H]-MX or [^3H]-paclitaxel-containing medium for an additional 2 h at 37 °C, with or without a test compound. The cells were washed twice with ice-cold phosphate-buffered saline (PBS), trypsinized and lysed at the end of incubation. The radioactivity was measured using the Packard TRICARB1 1900A liquid scintillation analyzer.

[3] = system: BCRP protein in H460/MX20 cells; assay: Western blot of BCRP expression in H460/MX20 cells; type: cell-based, human; conditions: H460/MX20 total cell lysate; Figure 7
Description: Cells in T25 flask were washed with ice-cold PBS. Lysis buffer (100 µL) was added into T25 flask. Using a cell scraper, scrape adherent cells were scraped off the flask and the cell suspension was transferred into a microcentrifuge tube (1.5 mL). Cells were agitated for 20 min at 4 °C and cell lysate was centrifuged mixture at 4 °C for 20 min at 12,000 rpm. The supernatant (lysate) was used for the gel electrophoresis. Equal amounts of total cell lysates (20 µg protein) were resolved by sodium dodecyl sulfate polyacrylamide gel electrophoresis (SDS-PAGE) and electrophoretically transferred onto polyvinylidene fluoride (PVDF) membranes. After incubation in a blocking solution (5% milk) for 2 h at room temperature, the membranes were incubated overnight with primary monoclonal antibodies against GAPDH (GA1R) (Invitrogen, Carlsbad, CA, USA) at 1:1000 dilution of BCRP protein (BXP 21) (Sigma-Aldrich, Inc., St. Louis, MO, USA) (1:1000) or P-gp (F4) (Sigma-Aldrich, Inc., St. Louis, MO, USA) at 4 °C, and were further incubated with horseradish […] (HRP)-conjugated secondary antibody (Thermo Fisher Scientific Inc., Waltham, MA, USA) at 1:1000 dilution for 2 h at room temperature. The protein antibody complex was detected using an enhanced chemiluminescence detection system. The grayscale ratio was analyzed by ImageJ and normalized by the grayscale of the ABC protein divided by that of GAPDH.

BCRP ATPase = biological target: T1, BCRP ATPase (Homo sapiens, UniProt Q9UNQ0); assay: Vanadate-sensitive BCRP ATPase assay; type: biochemical; conditions: membrane vesicles of High Five insect cells; Figure 10A,B
T1 construct: host or cells: High Five insect cells (membrane vesicles)
T1 sequence (Q9UNQ0 1-655): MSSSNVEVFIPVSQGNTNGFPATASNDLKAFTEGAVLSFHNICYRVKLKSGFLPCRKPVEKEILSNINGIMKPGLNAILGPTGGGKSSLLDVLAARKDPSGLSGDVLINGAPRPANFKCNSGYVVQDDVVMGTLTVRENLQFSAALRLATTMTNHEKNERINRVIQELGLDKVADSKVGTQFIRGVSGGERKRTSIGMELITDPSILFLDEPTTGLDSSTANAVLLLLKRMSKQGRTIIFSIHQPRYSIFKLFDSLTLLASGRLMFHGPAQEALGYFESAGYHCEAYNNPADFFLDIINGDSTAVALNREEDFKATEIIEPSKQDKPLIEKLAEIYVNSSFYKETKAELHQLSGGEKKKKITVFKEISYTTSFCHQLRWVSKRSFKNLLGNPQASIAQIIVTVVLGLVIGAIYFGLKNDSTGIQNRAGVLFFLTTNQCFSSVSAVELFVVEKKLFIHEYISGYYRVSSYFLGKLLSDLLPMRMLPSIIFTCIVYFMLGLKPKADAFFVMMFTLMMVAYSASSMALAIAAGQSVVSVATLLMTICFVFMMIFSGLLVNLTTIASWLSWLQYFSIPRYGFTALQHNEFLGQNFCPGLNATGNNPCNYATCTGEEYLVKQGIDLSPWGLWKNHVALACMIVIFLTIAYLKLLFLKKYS
Description: The vanadate (Vi)-sensitive ATPase activity of BCRP and P-gp in the membrane vesicles of High Five insect cells was measured as described previously. The results were presented as vanadate-sensitive ATPase activities by determining the difference in inorganic phosphate liberation measured in the presence and absence of sodium orthovanadate.

H460 cells = assay: [3H]-mitoxantrone accumulation assay, H460; type: cell-based, human; conditions: parental H460 cells; compound 5 μM; Figure 6A
Description: as §1

[4] = system: BCRP localization in H460/MX20 cells; assay: Immunofluorescence assay of BCRP localization in H460/MX20 cells; type: cell-based, human; conditions: 5 μM for 24, 48, and 72 h, Figure 8A,C
Description: For immunofluorescence analysis, parental and drug-resistant cells were seeded in 24-well plates at 10,000–20,000 cells/well and incubated for 24 h. The cells were incubated with or without cyclopropyl quinazolinamine 22 or azide quinazolinamine 33 for 24 h, 48 h, and 72 h. Thereafter, cells were washed with PBS and fixed with 4% paraformaldehyde for 10 min at room temperature and then rinsed with PBS twice, followed by permeabilization with 1% Triton X-100 for 10 min at 4 °C. The cells were again washed twice with PBS, and then blocked with 6% BSA for 1 h at 37 °C. Fixed cells were incubated with monoclonal antibody against the BCRP protein (BXP 21) (Sigma-Aldrich, Inc., St. Louis, MO) (1:1000) or P-gp (F4) (Sigma-Aldrich, Inc., St. Louis, MO, USA) overnight at 4 °C, followed by two washes with PBS. The cells were then further incubated with Alexa flour 488 goat anti-mouse IgG (1:1000) (Abcam plc.) for 2 h at 37 °C. After the cells were washed twice with PBS, 4′,6-diamidino-2-phenylindole (DAPI) (2 µg/mL) was used for nuclear counterstaining. The immunofluorescence images were generated using a Nikon TE-2000S fluorescence microscope (Nikon Instruments Inc, Melville, NY, USA).

[5] = system: human lung cancer cell line H460; assay: MTT reversal assay with mitoxantrone, parental H460 cells; type: cell-based; conditions: NCI-H460, H460, mitoxantrone alone, read-out: IC50 ± SD of mitoxantrone
Description: (§2) The human lung cancer cell line H460, and its MX-selected derivative BCRP-overexpressing cell line, H460/MX20, were used in this study. The KB-C2 cell line was selected by colchicine (Alfa Aesar, Haverhill, MA, USA) (2 μg/mL) with human cervical carcinoma cell line KB-3-1.
(§3) Cytotoxicity tests and reversal experiments were performed using the 3-(4,5-dimethylthiazol-2-yl)-2,5-diphenyltetrazolium bromide (MTT) colorimetric assay. Cells were seeded evenly into 96-well plates. […] To determine the MDR reversal efficacy of the quinazolinamine derivatives, an anticancer drug (mitoxantrone, colchicine, paclitaxel or cisplatin) was added into the designated wells after 2 h pre-incubation with a quinazolinamine derivative or a positive control inhibitor at non-toxic concentrations. After 72 h of drug incubation, the MTT reagent (4 mg/mL) was added into the wells, and then the plates were incubated for an additional 4 h. Subsequently, the supernatant was discarded and 100 µL of dimethyl sulfoxide (DMSO) was added to dissolve the formazan crystals. Cell viability was determined by measuring the absorbance by using an accuSkan™ GO UV/Vis Microplate Spectrophotometer (Fisher Sci., Fair Lawn, NJ, USA) at a wavelength of 570 nm.

[6] = system: BCRP-mediated MDR cell line H460/MX20; assay: MTT reversal assay with mitoxantrone, BCRP-overexpressing H460/MX20 cells; type: cell-based; conditions: Homo sapiens, NCI-H460/MX20, H460/MX20, mitoxantrone alone, read-out: IC50 ± SD of mitoxantrone
Description: as §2, §3

[7] = system: P-gp-mediated multidrug-resistant cell line KB-C2; assay: cells; conditions: Homo sapiens, KB-C2, read-out: IC50 value of colchicine
Description: as §2, §3

Compound: [N-]=[N+]=Nc1ccc(Nc2nc(-c3ccncc3)nc3ccccc23)cc1 [Compound 33, N-(4-Azidophenyl)-2-(pyridin-4-yl)quinazolin-4-amine]
- accumulation of mitoxantrone after UV light activation ([2]; H460/MX20, compound followed by UV light activation): increased compared to the group without activation
- accumulation of mitoxantrone ([2]; resistant H460/MX20 cells, compound 5 μM, Figure 6A): increased the accumulation
- expression level of BCRP protein [3]: not altered
- effect on Vi-sensitive BCRP ATPase activity (ATP hydrolysis) (BCRP ATPase): significantly stimulated
- accumulation of mitoxantrone (H460 cells): slightly increase
- BCRP fluorescence on the membranes / intracellular localization of BCRP [4]: did not change the intracellular localization
- Metabolic Stability, % compound remaining [1]: 86 ± 11%

Compound: COc1ccc2c3c([nH]c2c1)[C@H](CC(C)C)N1C(=O)[C@H](CCC(=O)OC(C)(C)C)NC(=O)[C@@H]1C3 [Ko143, reference compound]
- Metabolic Stability, % compound remaining [1]: 41% and 41 ± 7%

Compound: O=C1c2c(O)ccc(O)c2C(=O)c2c(NCCNCCO)ccc(NCCNCCO)c21 [Mitoxantrone]
- IC50 ([5]; Table 1 series): 0.072 ± 0.009 µM
- IC50 ([5]; Table 2 series): 0.154 ± 0.051 µM
- IC50 ([6]; Table 1 series): 5.66 ± 0.29 µM
- IC50 ([6]; Table 2 series): 6.5 ± 0.14 µM

Compound: COc1cc2c(c(OC)c1OC)-c1ccc(OC)c(=O)cc1[C@@H](NC(C)=O)CC2 [colchicine]
- IC50 [7]: 7.34 µM

Other lines, results leading:

- Metabolic Stability, % compound remaining [1]: 87 ± 12%
- melting point: 228 to 230 °C
Compound: CCc1ccc(Nc2nc(-c3ccncc3)nc3ccccc23)cc1 [Compound 4, N-(4-Ethylphenyl)-2-(pyridin-4-yl)quinazolin-4-amine]

- Metabolic Stability, % compound remaining [1]: 80 ± 5%
- melting point: 212 to 214 °C
Compound: CCCc1ccc(Nc2nc(-c3ccncc3)nc3ccccc23)cc1 [Compound 5, N-(4-Propylphenyl)-2-(pyridin-4-yl)quinazolin-4-amine]

- Metabolic Stability, % compound remaining [1]: 75 ± 6%
Compound: CC(C)c1ccc(Nc2nc(-c3ccncc3)nc3ccccc23)cc1 [Compound 23, N-(4-Isopropylphenyl)-2-(pyridin-4-yl)quinazolin-4-amine]

- Metabolic Stability, % compound remaining [1]: 91 ± 3%
Compound: CCc1cccc(Nc2nc(-c3ccncc3)nc3ccccc23)c1 [Compound 24, N-(3-Ethylphenyl)-2-(pyridin-4-yl)quinazolin-4-amine]

- Metabolic Stability, % compound remaining [1]: 83 ± 1%
Compound: COc1ccc(Nc2nc(-c3ccncc3)nc3ccccc23)cc1 [Compound 27, N-(4-Methoxyphenyl)-2-(pyridin-4-yl)quinazolin-4-amine]
